Assay results: patent US6653300B2, “Pyrazole compounds useful as protein kinase inhibitors” (Vertex Pharmaceuticals Incorporated, priority 2000, dated 2003)
pKi: −log10 of the molar value.

What was measured:
human Src kinase = target: T1, human Src kinase (Homo sapiens, UniProt P12931); assay: SRC inhibition assay (radioactivity-based or spectrophotometric assay); assay type: biochemical; settings: recombinant human Src kinase; assay A or B; read-out: Ki value on SRC
T1 construct: full length recombinant human Src kinase (from Upstate Biotechnology, cat. no. 14-117); purchased Upstate Biotechnology 14-117; host or cells: baculo viral cells
T1 sequence (P12931 whole entry): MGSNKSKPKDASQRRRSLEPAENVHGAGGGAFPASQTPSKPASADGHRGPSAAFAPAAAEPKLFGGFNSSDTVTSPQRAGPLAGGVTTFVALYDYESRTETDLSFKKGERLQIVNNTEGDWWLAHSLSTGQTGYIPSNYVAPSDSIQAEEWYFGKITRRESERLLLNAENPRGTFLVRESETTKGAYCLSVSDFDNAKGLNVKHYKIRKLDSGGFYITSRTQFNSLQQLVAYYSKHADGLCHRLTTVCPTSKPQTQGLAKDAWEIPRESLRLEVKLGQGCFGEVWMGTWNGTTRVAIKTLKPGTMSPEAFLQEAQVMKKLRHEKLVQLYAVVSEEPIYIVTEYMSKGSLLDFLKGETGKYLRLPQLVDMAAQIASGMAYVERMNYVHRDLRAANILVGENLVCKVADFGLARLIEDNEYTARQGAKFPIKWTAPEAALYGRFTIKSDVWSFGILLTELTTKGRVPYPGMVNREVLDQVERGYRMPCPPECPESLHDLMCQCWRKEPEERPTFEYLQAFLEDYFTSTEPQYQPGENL
How it was run: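 Full-length recombinant human Src from baculovirus was used. In the radiometric format, enzyme was preincubated 10 min at 30 °C, the reaction was started with ^33P-ATP and run 20 min, then TCA-quenched and filter-counted. The alternative format monitored poly Glu-Tyr phosphorylation by NADH-coupled A340 rate. Ki came from competitive-inhibition fits.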

CDK-2/Cyclin A = CDK-2/Cyclin A (Homo sapiens, UniProt P24941); assay: CDK-2 inhibition assay (coupled enzyme assay); assay type: biochemical; settings: 25 nM CDK-2/Cyclin A, 30° C.
Method: Compounds were screened in the following manner for their ability to inhibit CDK-2 using a standard coupled enzyme assay (Fox et al (1998) Protein Sci 7, 2249).
To an assay stock buffer solution containing 0.1M HEPES 7.5, 10 mM MgCl2, 1 mM DTT, 25 mM NaCl, 2.5 mM phosphoenolpyruvate, […], 30 mg/ml pyruvate kinase, 10 mg/ml lactate dehydrogenase, 100 mM ATP, and 100 μM peptide ([…], American Peptide, Sunnyvale, Calif.) was added a DMSO solution of a compound of the present invention to a final concentration of 30 μM. The resulting mixture was incubated at 30° C. for 10 min.
The reaction was initiated by the addition of 10 μL of CDK-2/Cyclin A stock solution to give a final concentration of 25 nM in the assay. The rates of reaction were obtained by monitoring absorbance at 340 nm over a 5-minute read time at 30° C. using a BioRad Ultramark plate reader (Hercules, Calif.). The Ki values were determined from the rate data as a function of inhibitor concentration.

## c1ccc2c(Nc3cc(C4CC4)[nH]n3)nc(Nc3ccc4ncsc4c3)nc2c1 [IIc-32, [2-(Benzothiazol-6-ylamino)-quinazolin-4-yl]-(5-cyclopropyl-2H-pyrazol-3-yl)-amine]
other
  melting point: 255 to 256 °C
Human Src kinase
  pKi: > 7.00
CDK-2/Cyclin A
  pKi: > 6.00
